From PubChem BioAssay (NCI) come the findings set out here.

Some test systems named below: M14 melanoma; SN12C renal; HCT-116 colon; SK-MEL-5 melanoma; NCI-H522 lung; MDA-MB-231 breast; LOX IMVI melanoma; OVCAR-5 ovarian; HOP-62 NSCLC; SF-539 CNS.
Holding throughout (assay): NCI anticancer screen, dose series, 48 h

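Grown in 96-well plates, cells were treated for 48 hours with each compound at five concentrations. Insufficient inhibition: endpoint recorded as highest concentration tested. Abbreviation: GI50, concentration required for 50% inhibition of growth. At the TGI there is no net growth.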

As for `NCC1OC(OC2C(N)CC(N)C(O)C2OC2OC(CO)C(O)C2O)C(N)C(O)C1O` (configuration not stated), the TGI with M14 melanoma, in the assay with SN12C renal, with HCT-116 colon, in the assay on SK-MEL-5 melanoma, in the assay on NCI-H522 lung and in the assay on MDA-MB-231 breast was greater than 100 µM each time. The TGI in the assay with LOX IMVI melanoma was greater than 100 µM; in the assay with OVCAR-5 ovarian it was greater than 100 µM; with HOP-62 NSCLC it was greater than 50 µM; in the assay with SF-539 CNS, greater than 100 µM. In addition, the GI50 with HCT-116 colon was greater than 100 µM.
As for `CN(CC(=O)O)c1ncc2c(n1)-c1ccccc1CC2`, the TGI in the assay with M14 melanoma, with SN12C renal, in the assay with HCT-116 colon, in the assay on SK-MEL-5 melanoma, in the assay on NCI-H522 lung and in the assay with MDA-MB-231 breast was greater than 100 µM in each case. Further, the TGI with LOX IMVI melanoma, with OVCAR-5 ovarian, in the assay with HOP-62 NSCLC and in the assay with SF-539 CNS was greater than 100 µM each time.
As for `CCOc1ccc(Nc2nc(N)nc(N)c2N=O)cc1`, the TGI with M14 melanoma, in the assay with SN12C renal, in the assay on HCT-116 colon, in the assay with SK-MEL-5 melanoma, in the assay with NCI-H522 lung and with MDA-MB-231 breast was greater than 100 µM throughout. In addition, the TGI in the assay with LOX IMVI melanoma, with OVCAR-5 ovarian, in the assay with HOP-62 NSCLC and with SF-539 CNS was greater than 100 µM each time.
On to `O=[N+]([O-])C(/C=C(\Cl)[N+](=O)[O-])=C(Nc1ccccc1)Nc1ccccc1`, for which the TGI amounted to 22.9 µM in the assay with M14 melanoma; 29.4 µM in the assay on SN12C renal; 4.36 µM in the assay on HCT-116 colon; 26.2 µM with SK-MEL-5 melanoma; 4.55 µM with NCI-H522 lung; 26.9 µM in the assay with MDA-MB-231 breast. Besides, the TGI in the assay with LOX IMVI melanoma came out at 33.2 µM; with OVCAR-5 ovarian, 20.1 µM; in the assay on HOP-62 NSCLC, 4.8 µM; with SF-539 CNS, 24 µM.
For the molecule `Cc1c(-c2ccccc2)oc(=O)c2ccccc12`, the TGI with M14 melanoma was found to be 51.2 µM; with SN12C renal, 38.1 µM; with HCT-116 colon, 56.4 µM; in the assay with SK-MEL-5 melanoma it was 33.8 µM; with NCI-H522 lung, 33.2 µM; in the assay with MDA-MB-231 breast, 36.5 µM. Besides, the TGI in the assay on LOX IMVI melanoma was 40.4 µM; with OVCAR-5 ovarian it was 80.9 µM; in the assay with HOP-62 NSCLC it was 43.5 µM; in the assay on SF-539 CNS, 36.2 µM.
For the molecule `Nc1ncnc2c1ncn2CCCNO`, the TGI in the assay with M14 melanoma, in the assay on SN12C renal, with HCT-116 colon, in the assay with SK-MEL-5 melanoma, with NCI-H522 lung and in the assay on MDA-MB-231 breast was greater than 100 µM each time. Besides, the TGI with LOX IMVI melanoma, with OVCAR-5 ovarian, with HOP-62 NSCLC and with SF-539 CNS was greater than 100 µM each time.
For `CC(CSc1nc2c(c(=N)n1-c1ccccc1)c(=S)n(-c1ccccc1)c(=S)n2-c1ccccc1)CN(C)C` (configuration not stated), the TGI in the assay with M14 melanoma was 3.56 µM; with SN12C renal, 3.55 µM; in the assay with HCT-116 colon it was 3.07 µM; with SK-MEL-5 melanoma, 4.42 µM; with NCI-H522 lung it was 2.83 µM; with MDA-MB-231 breast, 3.46 µM. Also, the TGI in the assay on LOX IMVI melanoma came out at 2.57 µM; in the assay on OVCAR-5 ovarian, 26.8 µM; in the assay with HOP-62 NSCLC it was 3.62 µM; in the assay on SF-539 CNS, 7.9 µM.
With `CC1CC[C@@]2(OC1)OC1C[C@H]3[C@@H]4CC=C5C[C@@H](OC6OC(CO)C(OC7OC(CO)C(O)C(O)C7O)C(O)C6OC6OC(C)C(O)C(O)C6O)CC[C@]5(C)[C@H]4CC[C@]3(C)C1[C@@H]2C` (some centres not stated), the TGI in the assay on M14 melanoma was found to be 0.859 µM; in the assay on SN12C renal, 1.52 µM; in the assay with HCT-116 colon, 2.31 µM; in the assay on SK-MEL-5 melanoma, 0.977 µM; in the assay on NCI-H522 lung, 2.93 µM; with MDA-MB-231 breast, 0.918 µM. Also, the TGI was 0.852 µM with LOX IMVI melanoma, 4.58 µM in the assay with OVCAR-5 ovarian, 1.6 µM in the assay on HOP-62 NSCLC and 0.88 µM in the assay with SF-539 CNS.
As for `CC[P+](c1ccccc1)(N(C)C)N(C)C`, the TGI in the assay on M14 melanoma, in the assay with SN12C renal, with HCT-116 colon, with SK-MEL-5 melanoma, in the assay on NCI-H522 lung and with MDA-MB-231 breast was greater than 100 µM throughout. Besides, the TGI in the assay with LOX IMVI melanoma, with OVCAR-5 ovarian, in the assay with HOP-62 NSCLC and with SF-539 CNS was greater than 100 µM in each case.
Turning to `CC(C)(C)[C@H]1NC(=O)CN1C(=O)OCc1ccccc1`, the TGI in the assay with M14 melanoma, with SN12C renal, with HCT-116 colon, in the assay with SK-MEL-5 melanoma, with NCI-H522 lung and in the assay on MDA-MB-231 breast was greater than 100 µM each time. Further, the TGI with LOX IMVI melanoma, in the assay on OVCAR-5 ovarian, in the assay on HOP-62 NSCLC and with SF-539 CNS was greater than 100 µM throughout.
Consider `COc1cc2c(cc1OCCN1CCN(CCOc3cc4c(cc3OC)C(=O)N3CCC[C@H]3C=N4)CC1)N=C[C@@H]1CCCN1C2=O`, for which the TGI was greater than 83.6 µM in the assay on M14 melanoma; greater than 100 µM in the assay on SN12C renal; greater than 86.8 µM in the assay with HCT-116 colon; 48.9 µM in the assay on SK-MEL-5 melanoma; greater than 82.1 µM in the assay on NCI-H522 lung; 54.5 µM in the assay on MDA-MB-231 breast. Also, the TGI in the assay on LOX IMVI melanoma is greater than 100 µM; in the assay on OVCAR-5 ovarian, 63.7 µM; in the assay on HOP-62 NSCLC, greater than 100 µM; in the assay on SF-539 CNS, greater than 64.3 µM. In addition, the GI50 in the assay with LOX IMVI melanoma was greater than 100 µM.
Consider `Nc1ccc2c3c1cccc3c(=O)n1c3ccc(Cc4ccc5c(c4)nc4c6ccc(N)c7cccc(c(=O)n54)c76)cc3nc21`, for which the TGI in the assay with M14 melanoma, in the assay on SN12C renal, in the assay on HCT-116 colon, in the assay on SK-MEL-5 melanoma, in the assay on NCI-H522 lung and in the assay on MDA-MB-231 breast was greater than 100 µM throughout. Besides, the TGI in the assay with LOX IMVI melanoma, in the assay on OVCAR-5 ovarian, in the assay with HOP-62 NSCLC and in the assay with SF-539 CNS was greater than 100 µM in each case.
On to `CC1=NN(C(=O)CC(=O)Nc2cccc(C)c2)C(=O)C1N=Nc1ccc(C(=O)O)cc1` (configuration not stated), for which the TGI with M14 melanoma, with SN12C renal, in the assay with HCT-116 colon, with SK-MEL-5 melanoma, in the assay on NCI-H522 lung and in the assay with MDA-MB-231 breast was greater than 100 µM each time. Besides, the TGI with LOX IMVI melanoma, in the assay with OVCAR-5 ovarian, with HOP-62 NSCLC and in the assay on SF-539 CNS was greater than 100 µM in each case.
